Results on 13 compounds are retold here after ChEMBL document CHEMBL1201862, “PubChem BioAssay data set” (2004).

Test systems include EKVX; MDA-MB-231; NCI-H460; 786-0; DU-145; SF-295; SK-OV-3; SN12C; HOP-92; M14; HT-29; HCT-116; UACC-62; UO-31; HCC 2998; NCI-H226; OVCAR-5.
Holding throughout (test): NCI tumour cell line growth inhibition, 48 h

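Cells were grown in 96-well plates and exposed to each compound for 48 hours at five concentrations; endpoints were interpolated linearly between bracketing concentrations, or set to the highest concentration if not reached. GI50 is the concentration that inhibits growth by half.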 Active and inactive are the calls of the source. Rule as the data show it: active = GI50 up to about 1.1 µM and inactive = higher. Bounds are passed on as bounds.

As for `O=c1oc2ccc(Cl)cc2cc1-c1cn2ccsc2n1`, the GI50 was 26.6 µM (inactive) with EKVX; 24.6 µM (inactive) in the test with MDA-MB-231; 49.9 µM (inactive) in the test with NCI-H460; 58.5 µM (inactive) in the test on 786-0; 95.7 µM (inactive) in the test with DU-145; 29.2 µM (inactive) in the test on SF-295. Further, the GI50 with SK-OV-3 is 83.6 µM (inactive); in the test with SN12C, 57 µM (inactive); in the test with HOP-92, 12.4 µM (inactive); with M14, 57.7 µM (inactive); in the test with HT-29, 52.8 µM (inactive); with HCT-116 it was 36.6 µM (inactive). Further, the GI50 is 34.3 µM (inactive) with UACC-62, 34.3 µM (inactive) in the test on UO-31 and 34.1 µM (inactive) with HCC 2998.

With `CCCCCn1c(=O)c2c(=O)[nH][nH]c2c2ccccc21`, the GI50 in the test with MDA-MB-231, in the test on NCI-H460, in the test on 786-0, in the test with DU-145, in the test on SF-295 and in the test on SK-OV-3 was > 100 µM (inactive) throughout. In addition, the GI50 with NCI-H226, in the test on SN12C, in the test on OVCAR-5, in the test on HOP-92, in the test with HT-29 and in the test with HCT-116 was > 100 µM (inactive) throughout. The GI50 in the test with UACC-62, in the test with UO-31 and in the test on HCC 2998 was > 100 µM (inactive) each time.

Turning to `COc1cc([C@@H]2c3cc4c(cc3[C@H](OC3OC5COC(c6ccco6)OC5C(O)C3O)C3COC(=O)[C@@H]32)OCO4)cc(OC)c1OC` (some centres not stated), the GI50 with MDA-MB-231 is 4.43 µM (inactive); in the test on NCI-H460 it was 2.16 µM (inactive); with 786-0, 3.3 µM (inactive); with DU-145, 3.15 µM (inactive); in the test on SF-295, 3.67 µM (inactive); with SK-OV-3, > 19.9 µM (inactive). Moreover, the GI50 is 4.17 µM (inactive) in the test with NCI-H226; 7.66 µM (inactive) with OVCAR-5; 9.93 µM (inactive) in the test with HOP-92; 4.44 µM (inactive) in the test on M14; 2.8 µM (inactive) in the test on HT-29; 3.27 µM (inactive) in the test with HCT-116. The GI50 in the test on UACC-62 is 4.73 µM (inactive); with UO-31, 25.9 µM (inactive); in the test with HCC 2998, 4 µM (inactive).

`CCOC(=O)c1c(SC(=O)c2ccc(OC)cc2)n(-c2ccccc2)c(=S)n(-c2ccccc2)c1=O`: the GI50 with EKVX was > 100 µM (inactive); with MDA-MB-231 it was 24 µM (inactive); with NCI-H460 it was 84.7 µM (inactive); with 786-0, 37.8 µM (inactive); with DU-145, > 100 µM (inactive); in the test on SF-295 it was > 100 µM (inactive). The GI50 in the test with SK-OV-3 was > 100 µM (inactive); in the test on NCI-H226 it was 84.1 µM (inactive); with SN12C, 76.9 µM (inactive); with OVCAR-5 it was > 100 µM (inactive); in the test with HOP-92 it was > 100 µM (inactive); with M14 it was 29.7 µM (inactive). In addition, the GI50 with HT-29 was 46.1 µM (inactive); in the test with HCT-116 it was 23.3 µM (inactive); in the test on UACC-62, > 100 µM (inactive); in the test on HCC 2998 it was > 100 µM (inactive).

On to `CCOC(=O)CSc1[nH]c(NC(=S)Nc2ccccc2)c(C(N)=O)c1C(N)=O`, for which the GI50 in the test on EKVX, with MDA-MB-231, in the test on 786-0, in the test on DU-145, in the test with SF-295 and in the test on SK-OV-3 was > 10 µM (inactive) each time. The GI50 is > 10 µM (inactive) in the test on SN12C; > 10 µM (inactive) in the test with HOP-92; > 10 µM (inactive) in the test with M14; > 10 µM (inactive) in the test on HT-29; > 10 µM (inactive) in the test with UACC-62; 6.28 µM (inactive) in the test on HCC 2998.

On to `C[C@@H]1C(=O)CC2(O)[C@@]13C[C@@H](OC(=O)[C@@H]3O)[C@@H](C)[C@@]21COC1=O` (some centres not stated), for which the GI50 in the test on EKVX, with MDA-MB-231, in the test on NCI-H460, in the test on 786-0, in the test on DU-145 and in the test with SF-295 was > 100 µM (inactive) in each case. Also, the GI50 with SK-OV-3, in the test on NCI-H226, in the test on SN12C, in the test with OVCAR-5, with M14 and with HT-29 was > 100 µM (inactive) throughout. Also, the GI50 in the test on HCT-116, in the test with UACC-62, in the test on UO-31 and in the test on HCC 2998 was > 100 µM (inactive) in each case.

For the compound `O=C(Nc1ccccn1)/C(=C\C(=O)c1ccc(Cl)cc1)Nc1ccccc1`, the GI50 is > 10 µM (inactive) in the test on EKVX; > 10 µM (inactive) with MDA-MB-231; 7.16 µM (inactive) with 786-0; > 10 µM (inactive) in the test on DU-145; > 10 µM (inactive) in the test on SF-295; > 10 µM (inactive) in the test with SK-OV-3. Besides, the GI50 in the test with SN12C, with HOP-92, in the test on M14, with HT-29, in the test on UACC-62 and in the test on HCC 2998 was > 10 µM (inactive) in each case.

Consider `COc1ccc(-c2c(C(C)=O)c(-c3ccccc3)n(C3OC(CO)C(O)C(O)C3O)c(=S)c2C#N)cc1` (configuration not stated), for which the GI50 in the test on EKVX, in the test with MDA-MB-231, in the test with NCI-H460, in the test on 786-0, in the test with DU-145 and in the test on SF-295 was > 100 µM (inactive) throughout. Moreover, the GI50 in the test with SK-OV-3, with NCI-H226, with SN12C, with OVCAR-5, in the test on M14 and in the test with HT-29 was > 100 µM (inactive) in each case. Besides, the GI50 with HCT-116 was > 100 µM (inactive); with UACC-62 it was 43.6 µM (inactive); in the test on UO-31, 4 µM (inactive); in the test with HCC 2998 it was > 100 µM (inactive).

Regarding `CCCCCCCCCCCCCCCCCCNC(=O)C(N)Cc1ccc(OCc2ccccc2)cn1` (configuration not stated), the GI50 is 22.6 µM (inactive) in the test on EKVX; 20.9 µM (inactive) with MDA-MB-231; 15.4 µM (inactive) in the test with NCI-H460; 24.5 µM (inactive) in the test with 786-0; 21.3 µM (inactive) in the test with DU-145; 24 µM (inactive) in the test on SF-295. Also, the GI50 in the test on SK-OV-3 was 22.7 µM (inactive); in the test on SN12C, 27.7 µM (inactive); with OVCAR-5 it was 21.1 µM (inactive); in the test on HOP-92, 17.1 µM (inactive); in the test with M14, 17.9 µM (inactive); with HT-29, 16.8 µM (inactive). Besides, the GI50 in the test with HCT-116 was 21.5 µM (inactive); in the test with UACC-62 it was 16.7 µM (inactive); in the test on UO-31, 17.3 µM (inactive); in the test with HCC 2998, 11.9 µM (inactive).

Regarding `Nc1nc(SCCc2ccccc2)c2nc[nH]c2n1`, the GI50 in the test on EKVX was 25.2 µM (inactive); in the test on MDA-MB-231, 51.1 µM (inactive); with NCI-H460, 33.9 µM (inactive); in the test on 786-0 it was 78.2 µM (inactive); with DU-145, 36.2 µM (inactive); in the test with SF-295 it was 71.9 µM (inactive). The GI50 in the test with NCI-H226 is 61.9 µM (inactive); with SN12C, 39.4 µM (inactive); with OVCAR-5, 72.3 µM (inactive); in the test on HOP-92 it was 76.6 µM (inactive); in the test on M14 it was 71.3 µM (inactive); in the test on HT-29 it was 41.1 µM (inactive). The GI50 is 68.5 µM (inactive) in the test with HCT-116, 47.5 µM (inactive) in the test on UACC-62, 60.7 µM (inactive) in the test with UO-31 and 25.9 µM (inactive) in the test with HCC 2998.

`Cc1cc(O)c(C=O)c2c1C(=O)Oc1c(CO)c(O)c3c(c1O2)C(O)OC3=O` (configuration not stated) [SLAZINIC ACID]: the GI50 with EKVX is > 100 µM (inactive); in the test on MDA-MB-231, > 100 µM (inactive); with 786-0, > 100 µM (inactive); in the test with DU-145 it was > 100 µM (inactive); with SF-295, > 100 µM (inactive); in the test with SK-OV-3, 64 µM (inactive). The GI50 was 38.8 µM (inactive) in the test with NCI-H226; > 100 µM (inactive) with SN12C; > 100 µM (inactive) with OVCAR-5; 50.6 µM (inactive) in the test with HOP-92; 61.4 µM (inactive) with M14; > 100 µM (inactive) in the test with HT-29. The GI50 is 69.8 µM (inactive) in the test with HCT-116, 59 µM (inactive) in the test with UACC-62, 34.5 µM (inactive) in the test with UO-31 and > 100 µM (inactive) with HCC 2998.

Regarding `COc1ccc2c(c1)CCc1c-2n(CCN2CCOCC2)c2ccc(OC)cc12`, the GI50 in the test on MDA-MB-231 is > 100 µM (inactive); with NCI-H460 it was 40.5 µM (inactive); in the test on 786-0, 82.8 µM (inactive); in the test with DU-145, > 100 µM (inactive); with SF-295, 61.4 µM (inactive); in the test on SK-OV-3, > 100 µM (inactive). The GI50 was 25.5 µM (inactive) in the test on NCI-H226; > 100 µM (inactive) in the test with SN12C; > 100 µM (inactive) in the test with OVCAR-5; > 100 µM (inactive) in the test on HOP-92; 28 µM (inactive) in the test with M14; 16.1 µM (inactive) in the test with HT-29. Moreover, the GI50 with HCT-116 is 63.2 µM (inactive); in the test on UACC-62, > 100 µM (inactive); in the test on UO-31, > 100 µM (inactive); with HCC 2998, 3.92 µM (inactive).

As to `CN[C@@H](Cc1cccc2ccccc12)C(=O)N[C@@H](CC(C)C)B(O)O`, the GI50 in the test on MDA-MB-231 was < 0.01 µM (active); with NCI-H460, < 0.0113 µM (active); in the test with 786-0, < 0.01 µM (active); in the test with DU-145, < 0.0109 µM (active); with SF-295, < 0.01 µM (active); in the test on SK-OV-3, 0.166 µM (active). Besides, the GI50 with NCI-H226 is 0.00211 µM (active); in the test on SN12C it was < 0.01 µM (active); in the test with OVCAR-5, < 0.01 µM (active); in the test on HOP-92 it was < 0.01 µM (active); in the test with M14 it was < 0.01 µM (active); in the test with HT-29 it was < 0.01 µM (active). In addition, the GI50 in the test with HCT-116, with UACC-62, in the test with UO-31 and in the test with HCC 2998 was < 0.01 µM (active) each time.
